Experimental data published in article PMC8706783 (Pharmaceutics, 2021).

Columns and labels:
CYP2C19 = CYP2C19 (Homo sapiens, UniProt P33261); assay: Enzyme inhibition assay, CYP2C19; conditions: HLM; CYP2C19 S-mephenytoin 4′-hydroxylation
UGT1A8 = target: T1, UGT1A8 (Homo sapiens, UniProt Q9HAW9); assay: Enzyme inhibition assay, UGT1A8
T1 sequence (Q9HAW9 26-530): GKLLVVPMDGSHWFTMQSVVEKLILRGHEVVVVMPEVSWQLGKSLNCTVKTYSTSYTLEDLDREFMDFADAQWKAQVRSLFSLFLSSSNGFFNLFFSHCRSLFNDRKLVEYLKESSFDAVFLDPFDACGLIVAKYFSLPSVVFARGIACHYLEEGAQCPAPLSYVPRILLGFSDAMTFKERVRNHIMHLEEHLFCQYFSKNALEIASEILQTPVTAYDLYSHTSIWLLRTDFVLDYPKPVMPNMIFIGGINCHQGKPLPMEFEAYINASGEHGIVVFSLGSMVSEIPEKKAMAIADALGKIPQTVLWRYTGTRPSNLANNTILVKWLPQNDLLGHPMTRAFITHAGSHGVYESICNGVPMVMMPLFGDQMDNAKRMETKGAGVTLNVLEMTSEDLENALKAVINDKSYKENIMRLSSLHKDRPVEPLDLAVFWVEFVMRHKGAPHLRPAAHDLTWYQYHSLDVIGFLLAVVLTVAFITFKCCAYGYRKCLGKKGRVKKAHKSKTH

UGT1A7 = target: T2, UGT1A7 (Homo sapiens, UniProt Q9HAW7); assay: Enzyme inhibition assay, UGT1A7
T2 sequence (Q9HAW7 26-530): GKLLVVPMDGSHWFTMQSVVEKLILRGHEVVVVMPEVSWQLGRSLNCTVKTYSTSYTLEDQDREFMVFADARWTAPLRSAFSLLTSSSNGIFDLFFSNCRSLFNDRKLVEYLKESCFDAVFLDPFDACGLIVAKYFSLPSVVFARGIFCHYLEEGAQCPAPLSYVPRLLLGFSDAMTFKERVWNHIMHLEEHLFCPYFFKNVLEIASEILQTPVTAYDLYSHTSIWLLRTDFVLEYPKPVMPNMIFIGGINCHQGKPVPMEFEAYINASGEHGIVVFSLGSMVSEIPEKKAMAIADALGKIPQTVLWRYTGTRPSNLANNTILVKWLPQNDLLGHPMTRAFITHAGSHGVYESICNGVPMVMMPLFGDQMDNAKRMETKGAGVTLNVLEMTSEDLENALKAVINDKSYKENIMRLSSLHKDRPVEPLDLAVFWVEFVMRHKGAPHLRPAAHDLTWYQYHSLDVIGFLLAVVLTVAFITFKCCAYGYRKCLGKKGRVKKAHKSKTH

UGT1A1 = target: T3, UGT1A1 (Homo sapiens, UniProt P22309); assay: Enzyme inhibition assay, UGT1A1; assay type: in vitro ADME; conditions: HLM; UGT1A1 SN38 glucuronidation; read-out: IC50
T3 construct: from tissue
T3 sequence (P22309 26-533): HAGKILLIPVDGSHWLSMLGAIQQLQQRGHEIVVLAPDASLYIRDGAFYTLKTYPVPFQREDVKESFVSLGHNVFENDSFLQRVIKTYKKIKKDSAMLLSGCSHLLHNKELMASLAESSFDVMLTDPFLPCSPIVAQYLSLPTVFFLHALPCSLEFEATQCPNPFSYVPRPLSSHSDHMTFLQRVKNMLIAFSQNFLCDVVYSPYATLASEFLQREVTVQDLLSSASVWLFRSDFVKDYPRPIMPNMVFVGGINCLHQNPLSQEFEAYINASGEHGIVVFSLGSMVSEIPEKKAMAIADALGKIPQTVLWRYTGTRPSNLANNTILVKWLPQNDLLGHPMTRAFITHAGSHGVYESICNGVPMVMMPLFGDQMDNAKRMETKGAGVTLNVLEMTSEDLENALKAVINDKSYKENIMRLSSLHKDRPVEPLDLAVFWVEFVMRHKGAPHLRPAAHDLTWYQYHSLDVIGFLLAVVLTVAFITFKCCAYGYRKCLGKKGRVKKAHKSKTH

UGT1A3 = target: T4, UGT1A3 (Homo sapiens, UniProt P35503); assay: Reaction phenotyping, rUGT1A3; conditions: recombinant UGT1A3, pH 7.4
T4 sequence (P35503 29-534): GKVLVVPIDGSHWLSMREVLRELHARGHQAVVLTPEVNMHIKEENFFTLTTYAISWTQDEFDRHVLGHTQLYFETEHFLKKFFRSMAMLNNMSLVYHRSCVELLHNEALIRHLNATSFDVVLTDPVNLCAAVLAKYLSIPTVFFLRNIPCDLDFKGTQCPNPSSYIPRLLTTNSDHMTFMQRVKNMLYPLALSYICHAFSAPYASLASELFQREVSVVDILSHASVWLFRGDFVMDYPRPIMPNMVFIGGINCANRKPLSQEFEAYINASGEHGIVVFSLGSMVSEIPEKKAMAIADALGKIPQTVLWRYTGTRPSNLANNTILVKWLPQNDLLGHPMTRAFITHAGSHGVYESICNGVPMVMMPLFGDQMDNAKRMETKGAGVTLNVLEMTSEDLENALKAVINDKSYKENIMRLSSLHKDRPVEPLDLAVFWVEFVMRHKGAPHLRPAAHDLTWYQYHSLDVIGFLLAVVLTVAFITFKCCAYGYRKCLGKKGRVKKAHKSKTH

UGT2B7 = target: T5, UGT2B7 (Homo sapiens, UniProt P16662); assay: Enzyme inhibition assay, UGT2B7; assay type: in vitro ADME; parameters: from tissue; conditions: HLM; UGT2B7 zidovudine glucuronidation
T5 sequence (P16662 24-529): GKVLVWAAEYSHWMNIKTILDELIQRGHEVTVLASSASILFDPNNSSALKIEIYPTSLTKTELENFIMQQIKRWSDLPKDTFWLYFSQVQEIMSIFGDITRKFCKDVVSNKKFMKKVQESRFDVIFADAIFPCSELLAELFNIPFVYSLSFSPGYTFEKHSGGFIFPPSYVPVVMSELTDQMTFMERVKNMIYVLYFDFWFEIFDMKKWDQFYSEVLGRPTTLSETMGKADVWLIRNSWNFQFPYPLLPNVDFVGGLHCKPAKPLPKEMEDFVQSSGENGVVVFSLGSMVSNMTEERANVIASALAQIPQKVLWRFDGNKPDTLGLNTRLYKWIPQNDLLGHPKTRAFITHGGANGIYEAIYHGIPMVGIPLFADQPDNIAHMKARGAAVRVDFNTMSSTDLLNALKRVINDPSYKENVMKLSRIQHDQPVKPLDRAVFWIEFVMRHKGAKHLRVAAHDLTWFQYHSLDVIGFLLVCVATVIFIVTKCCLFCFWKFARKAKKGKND

CYP1A1 = target: T6, CYP1A1 (Homo sapiens, UniProt P04798); assay: Enzyme inhibition assay, CYP1A1; assay type: in vitro ADME; parameters: purchased Xenotech LLC; conditions: Recombinant CYP1A1; phenacetin-O-deethylation
T6 sequence (P04798 1-512): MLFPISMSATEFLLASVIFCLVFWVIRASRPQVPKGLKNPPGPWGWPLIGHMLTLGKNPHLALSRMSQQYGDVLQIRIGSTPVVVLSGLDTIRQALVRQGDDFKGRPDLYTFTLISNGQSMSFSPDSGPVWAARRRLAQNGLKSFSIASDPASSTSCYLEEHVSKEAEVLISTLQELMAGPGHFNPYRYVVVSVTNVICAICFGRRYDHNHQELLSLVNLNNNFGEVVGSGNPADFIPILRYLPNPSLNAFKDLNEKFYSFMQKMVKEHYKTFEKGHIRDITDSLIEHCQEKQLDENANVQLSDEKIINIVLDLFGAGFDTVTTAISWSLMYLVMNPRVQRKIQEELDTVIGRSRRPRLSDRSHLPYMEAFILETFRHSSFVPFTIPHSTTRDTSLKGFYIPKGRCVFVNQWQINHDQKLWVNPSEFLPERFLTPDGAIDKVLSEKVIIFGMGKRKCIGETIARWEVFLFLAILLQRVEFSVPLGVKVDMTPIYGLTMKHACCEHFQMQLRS

UGT1A4 = target: T7, UGT1A4 (Homo sapiens, UniProt P22310); assay: Enzyme inhibition assay, UGT1A4
T7 sequence (P22310 29-534): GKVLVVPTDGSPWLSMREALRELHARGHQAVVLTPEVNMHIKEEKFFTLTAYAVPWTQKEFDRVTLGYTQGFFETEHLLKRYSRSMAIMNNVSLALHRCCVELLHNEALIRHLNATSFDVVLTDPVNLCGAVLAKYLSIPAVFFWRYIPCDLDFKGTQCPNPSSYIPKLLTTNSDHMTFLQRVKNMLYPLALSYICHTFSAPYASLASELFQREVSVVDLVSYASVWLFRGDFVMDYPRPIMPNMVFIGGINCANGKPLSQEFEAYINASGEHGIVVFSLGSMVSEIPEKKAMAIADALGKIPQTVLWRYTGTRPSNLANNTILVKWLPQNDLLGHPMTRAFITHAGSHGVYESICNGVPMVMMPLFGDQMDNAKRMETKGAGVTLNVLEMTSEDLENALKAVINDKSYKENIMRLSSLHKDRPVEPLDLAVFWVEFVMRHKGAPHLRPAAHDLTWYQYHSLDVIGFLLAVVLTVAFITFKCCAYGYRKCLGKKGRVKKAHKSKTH

CYP3A4 = CYP3A4 (Homo sapiens, UniProt P08684); assay: Reaction phenotyping, rCYP3A4; conditions: recombinant enzyme, pH 7.4
[1] = Reaction phenotyping, HLM with NADPH; assay type: in vitro ADME, human; conditions: human, human liver microsomes, pH 7.4; HLM (Phase 1), Midazolam (1 µM); read-out: Known Substrate (% Remaining at 60 min)
UGT1A9 = target: T8, UGT1A9 (Homo sapiens, UniProt O60656); assay: Enzyme inhibition assay, UGT1A9; assay type: in vitro ADME; parameters: from tissue; conditions: HLM; UGT1A9 mycophenolic acid glucuronidation
T8 sequence (O60656 26-530): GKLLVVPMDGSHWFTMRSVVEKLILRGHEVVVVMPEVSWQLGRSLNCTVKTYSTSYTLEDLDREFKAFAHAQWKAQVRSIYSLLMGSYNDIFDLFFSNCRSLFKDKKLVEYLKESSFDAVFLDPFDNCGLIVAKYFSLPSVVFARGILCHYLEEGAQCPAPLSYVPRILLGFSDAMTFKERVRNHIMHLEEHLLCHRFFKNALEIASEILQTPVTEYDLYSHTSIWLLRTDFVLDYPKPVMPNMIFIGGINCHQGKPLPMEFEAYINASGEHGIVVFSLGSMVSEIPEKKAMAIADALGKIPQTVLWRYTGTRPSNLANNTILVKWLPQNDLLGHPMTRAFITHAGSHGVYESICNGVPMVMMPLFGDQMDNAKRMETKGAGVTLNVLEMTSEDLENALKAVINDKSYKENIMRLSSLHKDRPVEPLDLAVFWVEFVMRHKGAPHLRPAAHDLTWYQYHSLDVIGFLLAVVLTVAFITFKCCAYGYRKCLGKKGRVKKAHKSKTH

CYP1A2 = assay: Enzyme induction assay, CYP1A2 activity in primary human hepatocytes; assay type: in vitro ADME; conditions: plated cryopreserved primary human hepatocytes, O-deethylation
CYP2B6 = assay: Enzyme induction assay, CYP2B6 activity in primary human hepatocytes; conditions: CYP2B6 bupropion hydroxylation, DPV 303 nM, phenobarbital 1 mM
rUGT1A1 = rUGT1A1 (Homo sapiens, UniProt P22309); assay: Reaction phenotyping, rUGT1A1; conditions: rUGT1A1, SN38 (0.5 µM)

Chain of CYP2C19 (P33261 whole entry): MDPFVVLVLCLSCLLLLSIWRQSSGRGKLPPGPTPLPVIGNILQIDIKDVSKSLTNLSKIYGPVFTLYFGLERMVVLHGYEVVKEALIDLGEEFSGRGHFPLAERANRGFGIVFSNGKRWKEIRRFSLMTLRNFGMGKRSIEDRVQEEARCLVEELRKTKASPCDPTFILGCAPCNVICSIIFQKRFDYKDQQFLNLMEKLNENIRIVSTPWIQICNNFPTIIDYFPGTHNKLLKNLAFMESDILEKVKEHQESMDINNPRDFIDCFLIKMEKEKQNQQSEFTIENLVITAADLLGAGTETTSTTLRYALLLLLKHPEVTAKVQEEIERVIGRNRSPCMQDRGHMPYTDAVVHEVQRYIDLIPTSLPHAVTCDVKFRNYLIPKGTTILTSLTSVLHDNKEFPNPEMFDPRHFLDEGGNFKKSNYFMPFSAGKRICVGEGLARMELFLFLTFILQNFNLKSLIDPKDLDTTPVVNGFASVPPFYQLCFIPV
Chain of CYP3A4 (P08684 whole entry): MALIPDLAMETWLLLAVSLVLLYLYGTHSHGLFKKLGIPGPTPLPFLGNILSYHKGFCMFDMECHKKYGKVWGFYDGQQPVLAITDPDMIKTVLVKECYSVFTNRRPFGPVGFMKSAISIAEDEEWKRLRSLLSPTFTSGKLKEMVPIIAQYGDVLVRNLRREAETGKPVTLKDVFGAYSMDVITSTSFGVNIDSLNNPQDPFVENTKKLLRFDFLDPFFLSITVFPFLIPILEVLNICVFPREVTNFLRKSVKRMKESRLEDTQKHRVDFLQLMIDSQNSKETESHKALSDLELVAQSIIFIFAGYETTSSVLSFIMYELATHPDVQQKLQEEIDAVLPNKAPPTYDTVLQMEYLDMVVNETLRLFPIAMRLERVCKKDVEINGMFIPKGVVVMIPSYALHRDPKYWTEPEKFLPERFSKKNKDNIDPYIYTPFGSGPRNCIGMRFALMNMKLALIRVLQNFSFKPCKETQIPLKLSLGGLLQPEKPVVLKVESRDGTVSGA

Structure (SMILES): CCC1(c2ccccc2)C(=O)NC(=O)N(Cc2ccccc2)C1=O (single isomer, unassigned; (-)) [(-)-N-3-benzyl-phenobarbital]
- IC50 (CYP2C19): 148 nM

Structure (SMILES): O=c1cc(-c2ccc(O)c(-c3c(O)cc(O)c4c(=O)cc(-c5ccc(O)cc5)oc34)c2)oc2cc(O)cc(O)c12 [Amentoflavone]
- IC50 (UGT1A8): 5570 nM
- IC50 (UGT1A7): 46.1 nM

Structure (SMILES): COC(=O)N[C@H](C(=O)N[C@@H](Cc1ccccc1)[C@@H](O)CN(Cc1ccc(-c2ccccn2)cc1)NC(=O)[C@@H](NC(=O)OC)C(C)(C)C)C(C)(C)C [Atazanavir]
- IC50 (UGT1A1): 110 nM

Structure (SMILES): C[C@H](CCC(=O)O)[C@H]1CC[C@H]2[C@@H]3[C@H](O)C[C@@H]4C[C@H](O)CC[C@]4(C)[C@H]3CC[C@]12C [Chenodeoxycholic acid]
- remaining at 1 h, 2 µM (UGT1A3): 59.4%

Structure (SMILES): OC(Cn1cncn1)(Cn1cncn1)c1ccc(F)cc1F [Fluconazole]
- IC50 (UGT2B7): 712000 nM

Structure (SMILES): Cc1nc2c([nH]1)c(=O)n(C)c(=O)n2Cc1ccco1 [Furafylline]
- IC50 (CYP1A1): 4760 nM

Structure (SMILES): C[C@@H]1CC[C@@]2(OC1)O[C@H]1C[C@H]3[C@@H]4CC[C@H]5C[C@@H](O)CC[C@]5(C)[C@H]4CC(=O)[C@]3(C)[C@H]1[C@@H]2C [Hecogenin]
- IC50 (UGT1A4): 960 nM

Structure (SMILES): Cc1ncc2n1-c1ccc(Cl)cc1C(c1ccccc1F)=NC2 [Midazolam]
- remaining at 1 h, 1 µM (CYP3A4): 4.02%
- remaining at 1 h [1]: 0%

Structure (SMILES): O=C(O)c1cccnc1Nc1cccc(C(F)(F)F)c1 [Niflumic acid]
- IC50 (UGT1A9): 150 nM

Structure (SMILES): COc1ccc2[nH]c([S+]([O-])Cc3ncc(C)c(OC)c3C)nc2c1 (stereo not drawn) [Omeprazole]
- fold induction at 72 h, 303 nM (CYP1A2; donor HU2036, probe phenacetin (100 µM)): 14 ± 2.43
- fold induction at 72 h, 303 nM (CYP1A2; donor HU2068, probe phenacetin (100 µM)): 35.5 ± 2.03
- fold induction at 72 h, 303 nM (CYP1A2; donor HU8373, probe phenacetin (100 µM)): 32.7 ± 6.67

Structure (SMILES): CCC1(c2ccccc2)C(=O)NC(=O)NC1=O [Phenobarbital]
- fold induction at 72 h, 303 nM (CYP2B6; donor HU2036, over negative control): 7.63 ± 0.82
- fold induction at 72 h, 303 nM (CYP2B6; donor HU2068, over negative control): 6.43 ± 1.02
- fold induction at 72 h, 303 nM (CYP2B6; donor HU8373, over negative control): 10.7 ± 0.61

Structure (SMILES): CCc1c2c(nc3ccc(O)cc13)-c1cc3c(c(=O)n1C2)COC(=O)[C@]3(O)CC [SN38]
- Known Substrate (% Remaining at 60 min) (rUGT1A1): SN38 (74.87) %
